Test results taken from patent publication US8614188B2, “Inhibiting collagen-induced platelet aggregation and activation with peptide variants” (University of Massachusetts, priority 2006, dated 2013).

Assays:
cells = assay: Toxicity of DMSO to cells; assay type: cell-based
Method: (§1) The CP and CP-A peptides were noted to be hydrophobic and insoluble in aqueous solutions. A variety of solvents and carriers were tested to improve their solubility. Solvents and/or carriers that improve solubility of CP and CP-A included, but were not limited to, ethanol, dimethylsulphoxide (DMSO), dimethyl formamide (DMF), and trifluoracetic acid (TFA). When using DMSO as a solvent, the final concentration used in the platelet function experiments ranged from 0.063%-0.250%. DMSO concentrations greater than 1% were observed toxic to cells. Stock solutions of CP and CP-A were prepared in DMSO and used at a […] dilution.

[1] = Solubility of peptides in aqueous solutions and solvents; assay type: physicochemical; conditions: solubility improved by ethanol, DMSO, DMF, TFA
Method: as §1

platelets = assay: Collagen-induced platelet activation, whole blood flow cytometry (P-Selectin, PAC-1); assay type: cell-based, human; conditions: for concentration-dependent effect on collagen-induced platelet activation: 50, 100 or 200 μM
Method: Peripheral blood was drawn from healthy, nonsmoking adult volunteers (IRB-approved written informed consent) who had not received any platelet inhibitory drugs in the preceding 2 weeks. After discarding the first 2 mL, blood was drawn into a 3.2% sodium citrate Vacutainer® (Becton Dickinson, Franklin Lakes. N.J., USA).
Flow cytometric analysis may be used to evaluate platelet function, and/or the assessment of platelet activation. Michelson, A. D., “Evaluation of platelet function by flow cytometry” Pathophysiol. Haemost. Thromb. 35:67-82 (2006). In the absence of an added exogenous platelet agonist, whole blood flow cytometry can determine the activation state of circulating platelets, as judged by the binding of an activation-dependent monoclonal antibody. In addition to this assessment of platelet function in vivo, inclusion of an exogenous agonist in the assay enables analysis of the reactivity of circulating platelets in vitro. In the latter application, whole blood flow cytometry is a physiological assay of platelet function in that an agonist results in a specific functional response by the platelets: a change in the surface expression of a physiological receptor (or other antigen or bound ligand), as determined by a change in the binding of a monoclonal antibody.
Markers of platelet activation include activation-dependent changes in the glycoprotein IIb/IIIa complex and exposure of granule membrane proteins. The platelet glycoprotein IIb/IIIa complex is believed involved with biochemical events leading to activation, and may express an activation dependent epitope recognized by monoclonal antibody PAC-1. Shattil et al., “Changes in the platelet membrane glycoprotein IIb/IIIa complex during platelet activation” J. Biol. Chem. 260:11107-11114 (1985). P-Selectin (GMP-140, PADGEM, CD-62P) is now known to be a component of the alpha-granule membrane and is therefore exposed on the surface of the platelet upon activation, due to the fusing of the vesicle with the outer membrane. These two markers of platelet activation were used to study the effect of peptide on collagen-induced platelet activation using whole blood flow cytometry.
The final concentration of a peptide used in incubation (i.e., for example, the GPVI CP) was 100 μM. The following antibodies (and appropriately matched isotype control antibodies) were used for flow cytometry analysis: fluorescein isothiocyanate (FITC)-conjugated PAC-1 monoclonal antibody which recognizes the activated conformation of glycoprotein (GP) IIb/IIIa; phycoerythrin (PE)-conjugated anti-CD62P monoclonal antibody directed against P-Selectin; and PECy7-conjugated anti-CD41 monoclonal antibody which recognizes the α-subunit of the CD41/CD61 complex (GPIIb-IIIa) (BD-Pharmingen, San-Diego, Calif., USA; and/or DAKO, Carpinteria, Calif., USA).
Prior to flow cytometric experiments, PE-conjugated anti-CD62P and anti-CD41 antibodies were mixed at a ratio of 1:2.5 (volume/volume) and diluted at a ratio of 1:9 (volume/volume) with 10 mmol/L HEPES, 0.15 mol/L NaCl, pH 7.4, containing 1% bovine serum albumin (BSA) and 15 mmol/L sodium azide. Collagen was purchased from Chronolog Corp (Havertown, Pa., USA). The stock 1 mg/mL collagen solution was diluted at a ratio of 1:10 (volume/volume) with 10 mmol/L HEPES, 0.15 mol/L NaCl, pH 7.4. Stock solutions of GPVI core peptide in DMSO (or pure DMSO as a “vehicle” control) were diluted at a ratio of 1:10 (volume/volume) with 10 mmol/L HEPES, 0.15 mol/L NaCl, pH 7.4, immediately before the addition of blood samples.
Flow cytometric analysis: aliquots of citrated whole blood were incubated at 37° C. for 60 min with vehicle (DMSO; in a final concentrations of 0.063, 0.125 or 0.250%) or a preliminarily diluted GPVI core peptide in a final concentration of 100 μM. Then, the aliquoted samples were stimulated with 20 μg/mL collagen for 5 minutes at 37° C. in the presence of monoclonal antibody FITC-PAC-1. […]

| solubility in aqueous solutions [1] | Compound | DMSO concentration observed toxic to cells (cells) | expression of the platelet activation markers as compared to vehicle control (platelets; 100 μM peptide, 20 μg/mL collagen) | collagen-mediated platelet activation, percentage of P-Selectin-positive platelets (platelets; 100 μM, FIG. 8A) | collagen-mediated platelet activation, P-Selectin mean fluorescence surface expression intensity (platelets; 100 μM, FIG. 8B) | collagen-mediated platelet activation, PAC-1 mean fluorescence surface expression intensity (platelets; 100 μM, FIG. 8C) | reduction in the expression of the platelet activation markers compared to vehicle control (platelets; 100 μM peptide, whole blood preincubated 60 min 37° C., 20 μg/mL collagen, % P-Selectin-positive platelets, P-Selectin and PAC-1 MFI) | concentration-dependent effect on collagen-induced platelet activation (platelets; % P-Selectin-positive platelets, P-Selectin and PAC-1 MFI, listed as GPVI core peptide) | concentration-dependent effect on collagen-induced platelet activation (platelets; % P-Selectin-positive platelets, P-Selectin and PAC-1 MFI, listed as GPVI-CP) | inhibition of platelet activation (platelets; Examples 4 and 5) |
| --- | --- | --- | --- | --- | --- | --- | --- | --- | --- | --- |
| – | C[S+](C)[O-] [DMSO, dimethylsulphoxide] | greater than 1% | – | – | – | – | – | – | – | – |
| insoluble | H-GNLVAICLGAV-OH [CP-A, NH2-Gly-Asn-Leu-Val-Ala-Ile-Cys-Leu-Gly-Ala-Val-OH, reference compound] | – | did not lead to any significant differences | absence of effect | absence of effect | absence of effect | – | – | – | – |
| insoluble | H-GNLVRICLGAV-OH [Peptide 2, NH2-Gly-Asn-Leu-Val-Arg-Ile-Cys-Leu-Gly-Ala-Val-OH] | – | – | – | – | – | 32%-59% | inhibited platelet activation in a concentration-dependent manner | concentration-dependent effect | 30-60% |
